Assays:
[1] = target: PI3Kα (p110α/p85α) (Homo sapiens (Human), UniProt P42336); test: PI3Kα enzymatic test by measuring the consumption of ATP; format: biochemical
Summary of the method: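 ATP consumption read out by KinaseGlo luminescence after a 90 min reaction of 1.7 μg/ml PI3Kα (p110α/p85α) with 2 μM ATP and 50 μM PIP2, buffered at pH 7.5 (Tris, 10 mM MgCl2, 1 mM EGTA, 0.03% Chaps, 1 mM DTT). Threefold dilution series over ≥10 000-fold range yield IC50.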

[2] = tested on: Akt-pS473 in U87MG cells; settings: Homo sapiens, U-87 MG, read-out: U87 Akt-pS473 % Inhibition or IC50, nM (IC50), U87MG cells
Method: Model 3: Cellular Test of Phosphorylation of the Epitope S473 of the Akt Protein on the U87MG Line Via an ELISA Test
An electrochemiluminescence signal is generated by a ruthenium-labelled anti-rabbit antibody.
After culturing for 16-20 hours (the cells are at 100% of confluence) at 37° C. under 5% CO2, 1 μl of the chemical compounds in 100% DMSO (1% DMSO final concentration on the cells) is added. The cells are incubated with the compounds for 3 hours at 37° C. under 5% CO2.
The free sites are blocked with 150 μl/well of a buffer of 50 mM Tris pH 7.5, 0.15 M NaCl, 0.02% Tween 20, 3% BSA with stirring at 450 rpm for 1 hour at room temperature, followed by a step of washing with 3×300 μl of a buffer of 50 mM Tris pH 7.5, 0.15 M NaCl, 0.02% Tween 20.
15 μl of cell lysate are mixed with 15 μl of a 50 mM buffer of Tris pH 7.5, 0.15 M NaCl, 0.02% Tween 20, 1% BSA in a precoated ELISA plate (see above), and incubated for 1 hour at room temperature with stirring, followed by a step of washing with 3×300 μl of a buffer of 50 mM Tris pH 7.5, 0.15 M NaCl, 0.02% Tween 20. The pS473 epitope of Akt is detected with a rabbit polyclonal antibody (Cell Signaling, SC9271), diluted 100-fold in 50 mM Tris pH 7.5, 0.15 M NaCl, 0.02% Tween 20, 1% BSA, 25 μl/well (incubation for 1 hour at room temperature with stirring at 450 rpm).
After washing (see above), revelation is performed with a ruthenium-labelled anti-rabbit antibody (MSD R32AB1), diluted 3000-fold in a 50 mM buffer of Tris pH 7.5, 0.15 M NaCl, 0.02% Tween 20, 1% BSA, 25 μl/well, followed by incubation for 1 hour at room temperature with stirring at 450 rpm, and the plates are covered with aluminium.
After a further washing step, the plates are emptied and 150 μl of MSD Read Buffer T diluted fourfold with water are added. The electrochemiluminescence is measured on the MSD Sector Imager 6000.

[3] = target: mTOR (human recombinant aa mTOR 1360-2549) (Homo sapiens (Human), UniProt P42345); test: mTOR enzymatic test by TR-FRET (phosphorylation of GFP-4EBP1); format: biochemical
Sequence of mTOR (human recombinant aa mTOR 1360-2549) (P42345 1360-2549): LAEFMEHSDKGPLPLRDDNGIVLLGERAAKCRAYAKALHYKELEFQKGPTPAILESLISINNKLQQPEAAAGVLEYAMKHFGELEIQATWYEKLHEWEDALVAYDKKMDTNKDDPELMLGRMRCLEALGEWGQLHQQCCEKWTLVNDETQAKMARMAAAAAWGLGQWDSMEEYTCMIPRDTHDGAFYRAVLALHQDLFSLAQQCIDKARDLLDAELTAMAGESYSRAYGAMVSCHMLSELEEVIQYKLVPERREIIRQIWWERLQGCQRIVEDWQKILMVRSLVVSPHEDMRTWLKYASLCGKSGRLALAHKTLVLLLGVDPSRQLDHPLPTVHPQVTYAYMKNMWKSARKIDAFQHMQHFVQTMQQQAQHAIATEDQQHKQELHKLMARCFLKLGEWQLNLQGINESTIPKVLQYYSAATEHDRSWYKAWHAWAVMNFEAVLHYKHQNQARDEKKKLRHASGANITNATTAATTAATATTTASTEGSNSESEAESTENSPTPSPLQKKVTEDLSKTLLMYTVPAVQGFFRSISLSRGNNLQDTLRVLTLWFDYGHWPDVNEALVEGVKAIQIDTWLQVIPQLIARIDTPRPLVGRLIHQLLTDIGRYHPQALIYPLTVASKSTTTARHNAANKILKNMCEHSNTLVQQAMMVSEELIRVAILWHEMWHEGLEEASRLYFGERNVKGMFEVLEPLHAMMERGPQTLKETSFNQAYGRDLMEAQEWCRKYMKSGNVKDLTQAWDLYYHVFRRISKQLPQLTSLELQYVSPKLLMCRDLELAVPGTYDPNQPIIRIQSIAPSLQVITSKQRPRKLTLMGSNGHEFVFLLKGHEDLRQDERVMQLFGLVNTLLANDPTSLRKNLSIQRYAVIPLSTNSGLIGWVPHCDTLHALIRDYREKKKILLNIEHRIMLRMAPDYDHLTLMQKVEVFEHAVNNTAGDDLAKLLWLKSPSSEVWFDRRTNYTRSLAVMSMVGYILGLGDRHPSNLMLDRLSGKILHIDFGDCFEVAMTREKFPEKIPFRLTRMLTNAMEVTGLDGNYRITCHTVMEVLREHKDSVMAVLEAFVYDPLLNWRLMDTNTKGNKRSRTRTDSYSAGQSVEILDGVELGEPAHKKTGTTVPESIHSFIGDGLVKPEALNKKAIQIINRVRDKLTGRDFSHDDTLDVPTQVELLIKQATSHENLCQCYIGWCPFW
Summary of the method: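 After a 30 min room-temperature kinase reaction, EDTA (10 mM final) and Tb-labelled phospho-Thr46 antibody (2 nM final) were added and incubated 60 min. Energy transfer from Tb to phosphorylated GFP-4EBP1 was read at 340 nm excitation, emissions 490/520 nm. Values derive from the 520/490 fluorescence ratio.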

[4] = tested on: U87MG tumour cells; test: Test of in vitro proliferation of U87MG tumour cells; format: cell-based; settings: Homo sapiens, U-87 MG, 72 h, U87MG cells, 72 hours; read-out: U87 Cell Proliferation IC50
Method: Model 4: Test of in vitro Proliferation of U87MG Tumour Cells.
The cell growth is determined with the reagent CellTiter 96 AQueous One Solution Cell Proliferation Assay from Promega (Cat. No. G3581).

Sequence of PI3Kα (p110α/p85α) (P42336 whole entry): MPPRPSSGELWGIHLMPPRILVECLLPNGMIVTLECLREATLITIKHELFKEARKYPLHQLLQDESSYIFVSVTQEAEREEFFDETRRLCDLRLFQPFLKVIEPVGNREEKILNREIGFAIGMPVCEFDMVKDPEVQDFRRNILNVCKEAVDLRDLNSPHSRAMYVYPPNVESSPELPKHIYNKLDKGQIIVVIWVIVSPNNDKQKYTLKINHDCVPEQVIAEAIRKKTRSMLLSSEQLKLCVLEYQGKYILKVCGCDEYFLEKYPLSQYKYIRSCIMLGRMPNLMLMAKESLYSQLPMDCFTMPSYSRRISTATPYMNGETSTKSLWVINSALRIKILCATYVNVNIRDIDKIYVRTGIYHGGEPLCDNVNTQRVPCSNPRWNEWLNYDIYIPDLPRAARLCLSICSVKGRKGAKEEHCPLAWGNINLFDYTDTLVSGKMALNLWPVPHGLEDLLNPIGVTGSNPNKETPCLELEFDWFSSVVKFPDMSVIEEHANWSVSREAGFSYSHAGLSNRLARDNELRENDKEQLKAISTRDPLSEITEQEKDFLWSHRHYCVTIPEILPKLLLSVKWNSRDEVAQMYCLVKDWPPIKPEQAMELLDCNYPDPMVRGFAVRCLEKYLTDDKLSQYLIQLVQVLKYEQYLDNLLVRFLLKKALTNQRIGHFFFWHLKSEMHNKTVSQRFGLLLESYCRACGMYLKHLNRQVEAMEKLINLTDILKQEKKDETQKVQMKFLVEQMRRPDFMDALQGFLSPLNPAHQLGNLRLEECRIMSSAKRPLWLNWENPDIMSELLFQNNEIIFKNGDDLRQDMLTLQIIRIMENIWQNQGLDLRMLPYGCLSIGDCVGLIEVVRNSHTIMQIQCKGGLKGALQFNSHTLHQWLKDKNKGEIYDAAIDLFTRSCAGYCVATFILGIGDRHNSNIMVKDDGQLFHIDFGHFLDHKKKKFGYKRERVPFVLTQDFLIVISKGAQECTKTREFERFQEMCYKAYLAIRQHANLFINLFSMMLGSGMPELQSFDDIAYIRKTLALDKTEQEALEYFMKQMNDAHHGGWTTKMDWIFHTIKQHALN
Sequence of PI3Kα (p110α/p85α) (P27986 whole entry partner): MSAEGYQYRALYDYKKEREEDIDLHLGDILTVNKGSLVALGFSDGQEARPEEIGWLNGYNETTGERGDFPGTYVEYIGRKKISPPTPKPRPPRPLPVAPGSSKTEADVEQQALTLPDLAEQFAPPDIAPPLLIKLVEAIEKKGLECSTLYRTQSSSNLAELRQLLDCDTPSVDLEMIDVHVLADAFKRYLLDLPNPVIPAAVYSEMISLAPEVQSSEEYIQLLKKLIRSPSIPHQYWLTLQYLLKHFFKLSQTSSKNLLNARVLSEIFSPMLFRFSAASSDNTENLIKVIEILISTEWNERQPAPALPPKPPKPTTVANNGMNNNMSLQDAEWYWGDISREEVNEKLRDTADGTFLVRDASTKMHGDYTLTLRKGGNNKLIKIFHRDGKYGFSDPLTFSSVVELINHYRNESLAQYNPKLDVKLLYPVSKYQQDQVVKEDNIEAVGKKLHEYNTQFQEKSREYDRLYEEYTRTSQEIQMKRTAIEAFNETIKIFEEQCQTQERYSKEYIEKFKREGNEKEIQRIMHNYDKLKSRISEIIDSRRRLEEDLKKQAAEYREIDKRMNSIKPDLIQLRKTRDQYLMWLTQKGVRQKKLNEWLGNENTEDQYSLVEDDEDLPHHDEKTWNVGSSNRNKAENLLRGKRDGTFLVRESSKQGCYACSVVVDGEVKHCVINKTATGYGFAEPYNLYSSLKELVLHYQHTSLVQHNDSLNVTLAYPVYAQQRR

SMILES	PI3Ka IC50 [1]	IC50 [2]	IC50 [3]	IC50 [4]
CCN1CC(C)(C)Oc2nc(N3C4CCC3COC4)nc(-c3ccc(NC(=O)Nc4ccnc(C)c4)c(F)c3)c2C1=O [Example 55, 1-{4-[6-Ethyl-8,8-dimethyl-2-(3-oxa-8-azabicyclo[3.2.1]oct-8-yl)-5-oxo-5,6,7,8-tetrahydro-9-oxa-1,3,6-triazabenzocyclohepten-4-yl]-2-fluorophenyl}-3-(2-methylpyridin-4-yl)urea]	4810 nM	27 nM	66 nM	54 nM
CCN1CC(C)(C)Oc2nc(N3CC4CCC(C3)O4)nc(-c3ccc(NC(=O)Nc4ccnc(C)c4)c(F)c3)c2C1=O [Example 56, 1-{4-[6-Ethyl-8,8-dimethyl-2-(8-oxa-3-azabicyclo[3.2.1]oct-3-yl)-5-oxo-5,6,7,8-tetrahydro-9-oxa-1,3,6-triazabenzocyclohepten-4-yl]-2-fluorophenyl}-3-(2-methylpyridin-4-yl)urea]	3230 nM	26 nM	41 nM	57 nM
CCN1CC(C)(C)Oc2nc(N3CC4CCC(C3)O4)nc(-c3ccc(NC(=O)Nc4cc(C)nc(C)c4)c(F)c3)c2C1=O [Example 58, 1-(2,6-Dimethylpyridin-4-yl)-3-{4-[6-ethyl-8,8-dimethyl-2-(8-oxa-3-azabicyclo[3.2.1]oct-3-yl)-5-oxo-5,6,7,8-tetrahydro-9-oxa-1,3,6-triazabenzocyclohepten-4-yl]-2-fluorophenyl}urea]	9470 nM	20 nM	28 nM	71 nM
Cc1cc(NC(=O)Nc2ccc(-c3nc(N4C5CCC4COC5)nc4c3C(=O)N(C)CC(C)(C)O4)cc2F)ccn1 [Example 59, 1-{2-Fluoro-4-[6,8,8-trimethyl-2-(3-oxa-8-azabicyclo[3.2.1]oct-8-yl)-5-oxo-5,6,7,8-tetrahydro-9-oxa-1,3,6-triazabenzocyclohepten-4-yl]phenyl}-3-(2-methylpyridin-4-yl)urea]	4200 nM	36 nM	67 nM	42 nM
CCN1CC(C)(C)Oc2nc(N3CC4CCC(C3)O4)nc(-c3ccc(NC(=O)O[C@H](C)CO)c(F)c3)c2C1=O [Example 62, {4-[6-Ethyl-8,8-dimethyl-2-(8-oxa-3-azabicyclo[3.2.1]oct-3-yl)-5-oxo-5,6,7,8-tetrahydro-9-oxa-1,3,6-triazabenzocyclohepten-4-yl]-2-fluorophenyl}carbamic acid (R)-2-hydroxy-1-methylethyl ester]	>10000 nM	> 1000 nM	667 nM	> 10000 nM
CCN1CC(C)(C)Oc2nc(N3C4CCC3COC4)nc(-c3ccc(NC(=O)Nc4ccccn4)cc3)c2C1=O [Example 63, 1-{4-[6-Ethyl-8,8-dimethyl-2-(3-oxa-8-azabicyclo[3.2.1]oct-8-yl)-5-oxo-5,6,7,8-tetrahydro-9-oxa-1,3,6-triazabenzocyclohepten-4-yl]phenyl}-3-pyridin-2-ylurea]	>10000 nM	31 nM	31 nM	190 nM
CCN1CC(C)(C)Oc2nc(N3CC4CCC(C3)O4)nc(-c3ccc(NC(=O)Nc4ccc(N(C)C)cn4)cc3)c2C1=O [Example 64, 1-(5-Dimethylaminopyridin-2-yl)-3-{4-[6-ethyl-8,8-dimethyl-2-(8-oxa-3-azabicyclo[3.2.1]oct-3-yl)-5-oxo-5,6,7,8-tetrahydro-9-oxa-1,3,6-triazabenzocyclohepten-4-yl]phenyl}urea]	>10000 nM	37 nM	24 nM	270 nM
CCN1CC(C)(C)Oc2nc(N3C4CCC3COC4)nc(-c3ccc(NC(=O)OCCO)cc3)c2C1=O [Example 65, {4-[6-Ethyl-8,8-dimethyl-2-(3-oxa-8-azabicyclo[3.2.1]oct-8-yl)-5-oxo-5,6,7,8-tetrahydro-9-oxa-1,3,6-triazabenzocyclohepten-4-yl]phenyl}carbamic acid 2-hydroxyethyl ester]	22400 nM	27 nM	27 nM	257 nM
Cc1ccc(NC(=O)Nc2ccc(-c3nc(N4CC5CCC(C4)O5)nc4c3C(=O)N(C)CC(C)(C)O4)cc2F)cn1 [Example 66, 1-{2-Fluoro-4-[6,8,8-trimethyl-2-(8-oxa-3-azabicyclo[3.2.1]oct-3-yl)-5-oxo-5,6,7,8-tetrahydro-9-oxa-1,3,6-triazabenzocyclohepten-4-yl]phenyl}-3-(6-methylpyridin-3-yl)urea]	2950 nM	21 nM	16 nM	71 nM
Cc1ccc(NC(=O)Nc2ccc(-c3nc(N4C5CCC4COC5)nc4c3C(=O)N(C)CC(C)(C)O4)cc2F)cn1 [Example 67, 1-{2-Fluoro-4-[6,8,8-trimethyl-2-(3-oxa-8-azabicyclo[3.2.1]oct-8-yl)-5-oxo-5,6,7,8-tetrahydro-9-oxa-1,3,6-triazabenzocyclohepten-4-yl]phenyl}-3-(6-methylpyridin-3-yl)urea]	>10000 nM	20 nM	15 nM	69 nM
CN1CC(C)(C)Oc2nc(N3C4CCC3COC4)nc(-c3ccc(NC(=O)Nc4ccncc4)cc3)c2C1=O [Example 68, 1-Pyridin-4-yl-3-{4-[6,8,8-trimethyl-2-(3-oxa-8-azabicyclo[3.2.1]oct-8-yl)-5-oxo-5,6,7,8-tetrahydro-9-oxa-1,3,6-triazabenzocyclohepten-4-yl]phenyl}urea]	1360 nM	16 nM	12 nM	82 nM
CN1CC(C)(C)Oc2nc(N3CC4CCC(C3)O4)nc(-c3ccc(NC(=O)Nc4ccncc4)cc3)c2C1=O [Example 69, 1-Pyridin-4-yl-3-{4-[6,8,8-trimethyl-2-(8-oxa-3-azabicyclo[3.2.1]oct-3-yl)-5-oxo-5,6,7,8-tetrahydro-9-oxa-1,3,6-triazabenzocyclohepten-4-yl]phenyl}urea]	472 nM	35 nM	6 nM	79 nM
COc1ccnc(NC(=O)Nc2ccc(-c3nc(N4C5CCC4COC5)nc4c3C(=O)N(C)CC(C)(C)O4)cc2)c1 [Example 70, 1-(4-Methoxypyridin-2-yl)-3-{4-[6,8,8-trimethyl-2-(3-oxa-8-azabicyclo[3.2.1]oct-8-yl)-5-oxo-5,6,7,8-tetrahydro-9-oxa-1,3,6-triazabenzocyclohepten-4-yl]phenyl}urea]	>10000 nM	40 nM	27 nM	288 nM
CCN1CC(C)(C)Oc2nc(N3CC4CCC(C3)O4)nc(-c3ccc(NC(=O)Nc4ccncc4)cc3F)c2C1=O [Example 71, 1-{4-[6-Ethyl-8,8-dimethyl-2-(8-oxa-3-azabicyclo[3.2.1]oct-3-yl)-5-oxo-5,6,7,8-tetrahydro-9-oxa-1,3,6-triazabenzocyclohepten-4-yl]-3-fluorophenyl}-3-pyridin-4-ylurea]	>10000 nM	59 nM	21 nM	209 nM
CCN1CC(C)(C)Oc2nc(N3CC4CCC(C3)O4)nc(-c3ccc(NC(=O)Nc4ccc(N5CCC(O)C5)cn4)cc3)c2C1=O (stereo not drawn) [Example 72, 1-{4-[6-Ethyl-8,8-dimethyl-2-(8-oxa-3-azabicyclo[3.2.1]oct-3-yl)-5-oxo-5,6,7,8-tetrahydro-9-oxa-1,3,6-triazabenzocyclohepten-4-yl]phenyl}-3-[5-(3-hydroxypyrrolidin-1-yl)pyridin-2-yl]urea]	>10000 nM	58 nM	23 nM	498 nM

— patent US9120812B2, “Pyrimidooxazocine derivatives as mTOR-inhibitors” (SANOFI, priority 2012, dated 2015)
